Measurements: ChEMBL document CHEMBL6078624, “Structure-based discovery of a 4,5-Dihydropyrazole-cored PET ligand for imaging of receptor-interacting serine/threonine-protein kinase 1 (RIPK1) in the brain” (Eur J Med Chem, 2024)

How the values were obtained:
[1] = tested on: L929; experiment: Anti-necroptotic activity against TNF induced mouse L929 cells assessed as cell viability incubated for 24 hrs by Cell Titer-Glo luminescent cell viability assay; type: functional, cell-based; details: L929, 24 h
[2] = tested on: HT-29; experiment: Anti-necroptotic activity against TNF induced human HT-29 cells assessed as cell viability incubated for 48 hrs by Cell Titer-Glo luminescent cell viability assay; type: functional, cell-based; details: HT-29, 48 h

Cc1ncc(-c2ccc3nc(N[11C](C)=O)sc3c2)cc1NC(=O)CC1CCCCC1
IC50 [1]: 13 nM
IC50 [2]: 23 nM
